# Experiments:
# [1] = system: transplanted tumor of human esophageal cancer cell TE-1; test: TE-1 transplanted tumor in nude mice
# Description: (§1) Then cell concentration was adjusted to 1×10^7/ml with matrigel, then each nude mouse was inoculated subcutaneously with 0.2 ml of cells at its right armpit and recorded as the first day of inoculation. When the tumor grows to be greater than or equal to 100 mm^3, the mice were randomly divided into 11 groups with 6 mice in each group: a model group, a cyclophosphamide group, isovaleryl spiramycin I groups with doses of 25, 50 and 100 mg/kg, isovaleryl spiramycin II groups with doses of 25, 50 and 100 mg/kg, and isovaleryl spiramycin III groups with doses of 25, 50 and 100 mg/kg. Each group was continuously administered intragastrically for 30 days with a dose of 20 ml/kg. The mice were sacrificed the next day after drug withdrawal and the indicators were tested. The long diameter and short diameter of the tumor, and the body weight of each mouse were recorded every 3 days from drug administration to nude mouse sacrifice.
# (§2) The body weight of the nude mice and the long diameter (a) and short diameter (b) of the transplanted tumor were measured every 3 days, and the tumor volume (v), relative tumor volume (RTV) and relative tumor proliferation rate (T/C) are calculated respectively according to the following formulas, wherein V=a×b^2/2; RTV=V/V0 (V0 is the tumor volume before administration, V is the tumor volume before sacrifice), and T/C (%)=treatment group RTV/model control group RTV×100%.
# (§3) Each mouse was weighed and sacrificed. After the tumor was completely stripped off from the body of the mouse, the non-tumor tissues such as blood stains and fat were removed to weigh the tumor and calculate the tumor growth inhibition rate. The average tumor weight of each group of mice is used as an indicator of efficacy. Tumor growth inhibition rate (%)=(1−the average tumor weight of the treatment group/the average tumor weight of the model group)×100%.
# [2] = system: transplanted tumor of HT-29 cells; test: HT-29 transplanted tumor in nude mice; settings: for Tumor Volume (mm3) (d30): d 30
# Description: as §1, with “group:” for “group: a model group, a cyclophosphamide group,”
# as §2, §3
# [3] = system: human bladder cancer cell T-24; settings: T-24, MTT
# Source text: (§4) The purpose of the assay is to evaluate the in vitro cell proliferation inhibition or cytotoxic activity of a tested sample.
# (§5) Human breast cancer cells MCF-7 and MDA-MB-231, human hepatoma cells HepG2, human non-small cell lung cancer cells A549, human large cell lung cancer cells H460 and H1299, human renal clear cell adenocarcinoma cell 786-0, human renal cell adenocarcinoma cell 769-P, human glioma cell U251, human glioblastoma cell A172, human tissue lymphoma cell U937, human cervical cancer cell HeLa, human prostate cancer cell PC3, human pancreatic cancer cell PANC-1, human esophageal cancer cell TE-1, human gastric adenocarcinoma cell SGC7901, human colon cancer cell HT-29, human promyelocytic leukemia cell HL-60, human thyroid cancer cell TPC-1, and human bladder cancer cell T-24.
# (§6) The inhibition rate of the medicament on tumor cell growth is calculated according to the following formula:
# (§7) Tumor cell growth inhibition rate (%)=[A492 (negative control)−A492 (dosing group)]/A492 (negative control)×100%
# (§8) And the half-inhibitory concentration (IC50) of the sample is determined therefrom.
# [4] = system: human thyroid cancer cell TPC-1; settings: TPC-1, MTT
# Source text: as §4, §5, §6, §7, §8
# [5] = TE-1, 12.5 mg/kg (low dose) i.g. 30 days
# [6] = TE-1, 25 mg/kg (medium dose) i.g. 30 days
# [7] = TE-1, 50 mg/kg (high dose) i.g. 30 days
# [8] = HT-29, high dose (100 mg/kg in method) i.g. 30 days
# [9] = HT-29, low dose (25 mg/kg in method) i.g. 30 days
# [10] = HT-29, medium dose (50 mg/kg in method) i.g. 30 days
compound,measurement,setting,value
"O=P1(N(CCCl)CCCl)NCCCO1 (stereo not shown) [Cyclophosphamide, cyclophosphamide, reference compound]",Body Weight (d 1),"[1]; TE-1, 30 mg/kg i.g. 30 days",23.18 ± 1.22 g
same,Body Weight (d 30),"[1]; TE-1, 30 mg/kg i.g. 30 days",20.57 ± 1.14 g
same,Inhibition Rate (tumor growth inhibition rate),"[1]; TE-1, 30 mg/kg i.g. 30 days",71.87%
same,Relative Tumor Proliferation Rate (T/C),"[1]; TE-1, 30 mg/kg i.g. 30 days",30.18%
same,Relative Tumor Volume (RTV),"[1]; TE-1, 30 mg/kg i.g. 30 days",4.00 ± 1.91
same,Tumor Volume (d 1),"[1]; TE-1, 30 mg/kg i.g. 30 days",269.96 ± 92.18 mm3
same,Tumor Volume (d 30),"[1]; TE-1, 30 mg/kg i.g. 30 days",886.22 ± 271.22 mm3
same,Tumor Weight,"[1]; TE-1, 30 mg/kg i.g. 30 days",0.44 ± 0.18 g
same,Inhibition Rate (%),"[2]; HT-29 nude mice, 30 mg/kg",78.87%
same,Tumor Weight,"[2]; HT-29 nude mice, 30 mg/kg",0.50 ± 0.25 g
same,Body Weight (g) (d1),"[2]; HT-29 nude mice, 30 mg/kg, d1",21.42 ± 1.35 g
same,Body Weight (g) (d30),"[2]; HT-29 nude mice, 30 mg/kg, d30",18.69 ± 1.21 g
same,Relative Tumor Proliferation Rate (T/C),[2]; dose 30 mg/kg,19.84%
same,Relative Tumor Volume (RTV),[2]; dose 30 mg/kg,2.86 ± 1.44
same,Tumor Volume (mm3) (d 1),[2]; dose 30 mg/kg,176.59 ± 36.81 mm3
same,Tumor Volume (mm3) (d30),[2]; dose 30 mg/kg,477.12 ± 166.46 mm3
"CO[C@@H]1[C@@H](O[C@@H]2O[C@H](C)[C@@H](O[C@H]3C[C@@](C)(O)[C@@H](OC(=O)CC(C)C)[C@H](C)O3)[C@H](N(C)C)[C@H]2O)[C@@H](CC=O)C[C@@H](C)[C@@H](O[C@H]2CC[C@H](N(C)C)[C@@H](C)O2)/C=C/C=C/C[C@@H](C)OC(=O)C[C@H]1O [Isovaleryl spiramycin I, isovaleryl spiramycin I]",IC50,[3],18.68 ± 0.58 µg/mL
same,IC50,[4],19.97 ± 1.93 µg/mL
same,Inhibition Rate (tumor growth inhibition rate),[1]; [5],30.92%
same,Relative Tumor Proliferation Rate (T/C),[1]; [5],60.55%
same,Relative Tumor Volume (RTV),[1]; [5],5.48 ± 3.80
same,Tumor Volume (d 1),[1]; [5],408.51 ± 150.80 mm3
same,Tumor Volume (d 30),[1]; [5],2690.27 ± 374.79 mm3
same,Tumor Weight,[1]; [5],1.08 ± 0.24 g
same,Inhibition Rate (tumor growth inhibition rate),[1]; [6],51.01%
same,Relative Tumor Proliferation Rate (T/C),[1]; [6],40.70%
same,Relative Tumor Volume (RTV),[1]; [6],3.94 ± 2.71
same,Tumor Volume (d 1),[1]; [6],258.44 ± 104.69 mm3
same,Tumor Volume (d 30),[1]; [6],1143.85 ± 402.36 mm3
same,Tumor Weight,[1]; [6],0.77 ± 0.43 g
same,Inhibition Rate (tumor growth inhibition rate),[1]; [7],69.71%
same,Relative Tumor Proliferation Rate (T/C),[1]; [7],20.61%
same,Relative Tumor Volume (RTV),[1]; [7],3.65 ± 1.71
same,Tumor Volume (d 1),[1]; [7],279.56 ± 156.70 mm3
same,Tumor Volume (d 30),[1]; [7],626.64 ± 431.35 mm3
same,Tumor Weight,[1]; [7],0.48 ± 0.36 g
same,tumor volume and relative tumor volume compared with the model group,"[1]; TE-1, low, medium and high doses, P<0.05",significantly lower
same,mouse weight compared with the model group,"[1]; mouse, in vivo",no significant changes
same,Relative Tumor Proliferation Rate (T/C),[2]; [8],29.11%
same,tumor growth inhibition rate,[2]; [8],70.14%
same,Relative Tumor Proliferation Rate (T/C),[2]; [9],81.60%
same,tumor growth inhibition rate,[2]; [9],16.10%
same,tumor volume and relative tumor volume compared with the model group,"[2]; HT-29, low, medium and high doses, P<0.05",significantly lower
same,Relative Tumor Proliferation Rate (T/C),[2]; [10],49.22%
same,tumor growth inhibition rate,[2]; [10],49.72%
same,Inhibition Rate (%),"[2]; HT-29 nude mice, 25 mg/kg",16.10%
same,Tumor Weight,"[2]; HT-29 nude mice, 25 mg/kg",1.97 ± 0.31 g
same,Inhibition Rate (%),"[2]; HT-29 nude mice, 50 mg/kg",49.72%
same,Tumor Weight,"[2]; HT-29 nude mice, 50 mg/kg",1.18 ± 0.34 g
same,Inhibition Rate (%),"[2]; HT-29 nude mice, 100 mg/kg",70.14%
same,Tumor Weight,"[2]; HT-29 nude mice, 100 mg/kg",0.70 ± 0.29 g
same,Relative Tumor Proliferation Rate (T/C),[2]; dose 25 mg/kg,81.60%
same,Relative Tumor Volume (RTV),[2]; dose 25 mg/kg,11.76 ± 4.03
same,Tumor Volume (mm3) (d 1),[2]; dose 25 mg/kg,162.77 ± 38.95 mm3
same,Tumor Volume (mm3) (d30),[2]; dose 25 mg/kg,1803.98 ± 271.55 mm3
same,Relative Tumor Proliferation Rate (T/C),[2]; dose 50 mg/kg,49.22%
same,Relative Tumor Volume (RTV),[2]; dose 50 mg/kg,7.09 ± 1.47
same,Tumor Volume (mm3) (d 1),[2]; dose 50 mg/kg,157.41 ± 37.31 mm3
same,Tumor Volume (mm3) (d30),[2]; dose 50 mg/kg,1109.16 ± 320.27 mm3
same,Relative Tumor Proliferation Rate (T/C),[2]; dose 100 mg/kg,29.11%
same,Relative Tumor Volume (RTV),[2]; dose 100 mg/kg,4.19 ± 2.23
same,Tumor Volume (mm3) (d 1),[2]; dose 100 mg/kg,169.25 ± 35.39 mm3
same,Tumor Volume (mm3) (d30),[2]; dose 100 mg/kg,648.93 ± 198.53 mm3
same,mouse weight compared with the model group,"[2]; mouse, in vivo",no significant changes
same,Body Weight (g) (d1),"[2]; mouse, in vivo, 25 mg/kg",21.41 ± 1.41 g
same,Body Weight (g) (d30),"[2]; mouse, in vivo, 25 mg/kg",20.98 ± 0.99 g
same,Body Weight (g) (d1),"[2]; mouse, in vivo, 50 mg/kg",21.31 ± 1.53 g
same,Body Weight (g) (d30),"[2]; mouse, in vivo, 50 mg/kg",20.56 ± 1.09 g
same,Body Weight (g) (d1),"[2]; mouse, in vivo, 100 mg/kg",20.77 ± 1.13 g
same,Body Weight (g) (d30),"[2]; mouse, in vivo, 100 mg/kg",21.19 ± 1.26 g

# Source: patent US20200163984A1, “USE OF ISOVALERYL SPIRAMYCIN I, II AND/OR III IN MANUFACTURING MEDICAMENT FOR TREATING AND/OR PREVENTING TUMOR, AND MEDICAMENT” (SHENYANG FUYANG PHARMACEUTICAL TECHNOLOGY CO., LTD., priority 2017, published 2020)
